# Laboratory results taken from publication PMC10458893, “Design of Protegrin-1 Analogs with Improved Antibacterial Selectivity” (Pharmaceutics, 2023).
# Read-outs that look alike come from different tables or passages of the source. Positions of bridges follow the written chain, without caps; N, C: chain ends. Residues, ends and D or L forms follow the SMILES beside them.
# Tests used:
# M. luteus B-1314 = assay type: cell-based, Micrococcus luteus; conditions: B-1314, 24 h
# Experimental: (§1) The antimicrobial activity of the peptides was determined using two-fold serial dilutions in sterile 96-well flat-bottom polystyrene microplates (Eppendorf, Hamburg, Germany) (Cat. No. 0030730011), as previously described. The following strains of bacteria were used: E. coli ATCC 25922, E. coli ML35p (ATCC collection), E. coli BW 25113 (Keio collection), Pseudomonas aeruginosa PAO1 (ATCC collection), P. aeruginosa ATCC 27853, Klebsiella pneumoniae ATCC 700603, Staphylococcus aureus 209P (ATCC collection), S. aureus ATCC 29213, and Micrococcus luteus B-1314 (VKM collection). Acinetobacter baumannii (strain XDR CI 2675) was provided by the I.M. Sechenov First Moscow State Medical University hospital. After a 24 h incubation period, the metabolic activity of the bacteria was assessed by adding 20 µL of a redox indicator, resazurin (Sigma-Aldrich, St. Louis, MO, USA), at a concentration of 0.1 mg/mL, to the wells. The plate was then incubated for a further two hours. The minimum inhibitory concentration (MIC) was determined as the lowest concentration of the peptide at which no color change in the resazurin indicator was observed. The results were presented as median values, which were determined based on at least three independent experiments carried out in triplicate.
# [1] = system: K. pneumoniae ATCC 700603; assay type: cell-based, Klebsiella pneumoniae; conditions: ATCC 700603, 24 h
# Experimental: as §1
# P. aeruginosa PAO1 = assay type: cell-based, Pseudomonas aeruginosa; conditions: PAO1, 24 h
# Experimental: as §1
# P. aeruginosa ATCC 27853 = assay type: cell-based, Pseudomonas aeruginosa; conditions: ATCC 27853, 24 h
# Experimental: as §1
# [2] = system: human keratinocyte cell line (HaCaT); experiment: Cytotoxicity MTT assay; assay type: cell-based; conditions: 18 h, 128
# Experimental: In order to evaluate the cytotoxicity of the peptides against a human keratinocyte cell line (HaCaT, Cat. No. 300493) (Cell Lines Service, Köln, Germany), the colorimetric 3-(4,5-dimethylthiazol-2-yl)-2,5-diphenyltetrazolium bromide (MTT) dye reduction assay was performed, as described in a previous publication. Wells containing no peptide were used as a 100% survival control. Each peptide was tested in two separate experiments to ensure the reliability of the results.
# [3] = system: freshly isolated human erythrocytes (hRBCs); experiment: Hemolysis assay (hemoglobin release); assay type: cell-based; conditions: red cells of human, 64
# Description: To assess the hemolytic activity of the compounds, freshly isolated human erythrocytes (hRBCs) were used according to the methodology described in a previous study. Melittin was used as a positive peptide control that induces significant hemolysis. Isotonic phosphate buffer (PBS) served as a negative control, while 0.1% Triton X-100 solution was used as a control for complete hemolysis.
# [4] = system: Acinetobacter baumannii (strain XDR CI 2675); assay type: cell-based
# Experimental: as §1
# all the test strains = assay type: cell-based; conditions: geometric mean over the 10 test strains
# Experimental: as §1
# E. coli ATCC 25922 = assay type: cell-based; conditions: ATCC 25922, 24 h
# Experimental: as §1
# E. coli ML35p = assay type: cell-based
# Experimental: as §1
# E. coli BW 25113 = assay type: cell-based; conditions: two-fold serial dilutions, 24 h incubation, resazurin read-out; median of at least three independent experiments in triplicate
# Experimental: as §1
# S. aureus ATCC 29213 = assay type: cell-based, Staphylococcus aureus; conditions: ATCC 29213, 24 h
# Experimental: as §1
# S. aureus 209P = assay type: cell-based, Staphylococcus aureus; conditions: 24 h
# Experimental: as §1
# [5] = strain XDR CI 2675, two-fold serial dilutions, 24 h incubation, resazurin read-out, median of at least three independent experiments in triplicate
# [6] = two-fold serial dilutions, 24 h incubation, resazurin read-out, median of at least three independent experiments in triplicate
SMILES,"MIC, M. luteus B-1314 (M. luteus B-1314) [µM]","MIC, K. pneumoniae ATCC 700603 [1] [µM]","MIC, P. aeruginosa PAO1 (P. aeruginosa PAO1) [µM]","MIC, P. aeruginosa ATCC 27853 (P. aeruginosa ATCC 27853) [µM]","Cell Viability, % (128 μM) [2]","Hemolytic activity, % (64 μM) [3]","MIC, A. baumannii ([4]; strain XDR CI 2675, 24 h) [µM]","MIC (GM), geometric mean of the peptide's MICs against all the test strains (all the test strains) [µM]","MIC, E. coli ATCC 25922 (E. coli ATCC 25922) [µM]","MIC, E. coli ML35p (E. coli ML35p; ML35p, 24 h) [µM]","MIC, E. coli BW 25113 (E. coli BW 25113) [µM]","MIC, S. aureus ATCC 29213 (S. aureus ATCC 29213) [µM]","MIC, S. aureus 209P (S. aureus 209P) [µM]","MIC, A. baumannii [4, 5] [µM]","MIC, E. coli ML35p (E. coli ML35p; [6]) [µM]"
"CC(C)[C@@H]1NC(=O)[C@@H]2CSSC[C@H](NC(=O)[C@H](Cc3ccc(O)cc3)NC(=O)[C@@H](NC(=O)[C@H](C)NC(=O)[C@H](CCCNC(=N)N)NC(=O)CNC(=O)CNC(=O)[C@@H](N)CCCNC(=N)N)CSSC[C@@H](C(=O)N[C@@H](CCCNC(=N)N)C(=O)NCC(=O)N[C@@H](CCCNC(=N)N)C(=O)O)NC1=O)C(=O)N[C@@H](CCCNC(=N)N)C(=O)N[C@@H](CCCNC(=N)N)C(=O)N[C@@H](CCCNC(=N)N)C(=O)N[C@@H](Cc1ccccc1)C(=O)N2 [[L5A,V16R]] (H-RGGRACYCRRRFCVCRGR-OH; disulfide 6-15, 8-13; N-terminus and C-terminus assumed)",4,32,8,4,94.1 (± 3.51) %,1.0 (±0.01) %,0.5,4.9,2,1,2,32,32,–,–
"CC(C)[C@H](NC(=O)[C@@H]1CSSC[C@H](NC(=O)[C@H](C)NC(=O)[C@H](CCCNC(=N)N)NC(=O)CNC(=O)CNC(=O)[C@@H](N)CCCNC(=N)N)C(=O)N[C@@H](Cc2ccc(O)cc2)C(=O)N[C@H]2CSSC[C@H](NC(=O)[C@H](Cc3ccccc3)NC(=O)[C@H](CCCNC(=N)N)NC(=O)[C@H](CCCNC(=N)N)NC(=O)[C@H](CCCNC(=N)N)NC2=O)C(=O)N[C@@H](C(C)C)C(=O)N1)C(=O)NCC(=O)N[C@@H](CCCNC(=N)N)C(=O)O [[L5A]] (H-RGGRACYCRRRFCVCVGR-OH; disulfide 6-15, 8-13; N-terminus and C-terminus assumed)",0.5,1,0.5,0.25,10.0 (±3.27) %,40.3 (±6.95) %,–,0.4,0.5,–,0.125,1,1,0.25,0.25
"CC(C)[C@H](NC(=O)[C@@H]1CSSC[C@H](NC(=O)[C@H](CCCNC(=N)N)NC(=O)[C@H](CCCNC(=N)N)NC(=O)CNC(=O)CNC(=O)[C@@H](N)CCCNC(=N)N)C(=O)N[C@@H](Cc2ccc(O)cc2)C(=O)N[C@H]2CSSC[C@H](NC(=O)[C@H](Cc3ccccc3)NC(=O)[C@H](CCCNC(=N)N)NC(=O)[C@H](CCCNC(=N)N)NC(=O)[C@H](CCCNC(=N)N)NC2=O)C(=O)N[C@@H](C(C)C)C(=O)N1)C(=O)NCC(=O)N[C@@H](CCCNC(=N)N)C(=O)O [[L5R]] (H-RGGRRCYCRRRFCVCVGR-OH; disulfide 6-15, 8-13; N-terminus and C-terminus assumed)",1,8,1,1,7.7 (± 4.64) %,14.1 (±2.13) %,–,1.2,1,–,0.25,4,4,0.5,0.5
"CC(C)C[C@H](NC(=O)[C@H](CCCNC(=N)N)NC(=O)CNC(=O)CNC(=O)[C@@H](N)CCCNC(=N)N)C(=O)N[C@H]1CSSC[C@@H](C(=O)N[C@@H](CCCNC(=N)N)C(=O)NCC(=O)N[C@@H](CCCNC(=N)N)C(=O)O)NC(=O)[C@H](C)NC(=O)[C@@H]2CSSC[C@H](NC(=O)[C@H](Cc3ccc(O)cc3)NC1=O)C(=O)N[C@@H](CCCNC(=N)N)C(=O)N[C@@H](CCCNC(=N)N)C(=O)N[C@@H](CCCNC(=N)N)C(=O)N[C@@H](Cc1ccccc1)C(=O)N2 [[V14A,V16R]] (H-RGGRLCYCRRRFCACRGR-OH; disulfide 6-15, 8-13; N-terminus and C-terminus assumed)",4,32,8,4,110.6 (± 6.68) %,1.1 (±0.15) %,0.5,4.9,2,1,2,32,32,–,–
"CC(C)C[C@H](NC(=O)[C@H](CCCNC(=N)N)NC(=O)CNC(=O)CNC(=O)[C@@H](N)CCCNC(=N)N)C(=O)N[C@H]1CSSC[C@@H](C(=O)N[C@H](C(=O)NCC(=O)N[C@@H](CCCNC(=N)N)C(=O)O)C(C)C)NC(=O)[C@H](C)NC(=O)[C@@H]2CSSC[C@H](NC(=O)[C@H](Cc3ccc(O)cc3)NC1=O)C(=O)N[C@@H](CCCNC(=N)N)C(=O)N[C@@H](CCCNC(=N)N)C(=O)N[C@@H](CCCNC(=N)N)C(=O)N[C@@H](Cc1ccccc1)C(=O)N2 [[V14A]] (H-RGGRLCYCRRRFCACVGR-OH; disulfide 6-15, 8-13; N-terminus and C-terminus assumed)",0.5,1,0.5,0.25,12.05 (± 2.8) %,39.0 (±10.2) %,0.125,0.4,0.5,0.25,0.125,1,1,–,–
"CC(C)C[C@H](NC(=O)[C@H](CCCNC(=N)N)NC(=O)CNC(=O)CNC(=O)[C@@H](N)CCCNC(=N)N)C(=O)N[C@H]1CSSC[C@@H](C(=O)N[C@H](C(=O)NCC(=O)N[C@@H](CCCNC(=N)N)C(=O)O)C(C)C)NC(=O)[C@H](CCCNC(=N)N)NC(=O)[C@@H]2CSSC[C@H](NC(=O)[C@H](Cc3ccc(O)cc3)NC1=O)C(=O)N[C@@H](CCCNC(=N)N)C(=O)N[C@@H](CCCNC(=N)N)C(=O)N[C@@H](CCCNC(=N)N)C(=O)N[C@@H](Cc1ccccc1)C(=O)N2 [[V14R]] (H-RGGRLCYCRRRFCRCVGR-OH; disulfide 6-15, 8-13; N-terminus and C-terminus assumed)",2,32,32,>32,98.6 (± 6.0) %,1.2 (±0.43) %,2,9.8,4,4,2,32,32,–,–
